From ChEMBL document CHEMBL4382202, “1-(2-Hydroxybenzoyl)-thiosemicarbazides are promising antimicrobial agents targeting d-alanine-d-alanine ligase in bacterio” (Eur J Med Chem, 2018)
In brackets after ≈: the same amount, converted by molar mass.

Assays:
Enterococcus faecalis [1] = assay: Antibacterial activity against vancomycin-resistant Enterococcus faecalis BM 4390 after 18 to 24 hrs by microdilution assay; type: functional
Staphylococcus aureus [2] = assay: Antibacterial activity against community-acquired methicillin and erythromycin resistant Staphylococcus aureus SA 325 after 18 to 24 hrs by microdilution assay; type: functional
Staphylococcus aureus [3] = assay: Antibacterial activity against methicillin and vancomycin intermediate resistant Staphylococcus aureus MU50 after 18 to 24 hrs by microdilution assay; type: functional
[4] = target: T1, D-alanine--D-alanine ligase (Enterococcus faecalis (strain ATCC 700802 / V583), UniProt Q47758); assay: Inhibition of Enterococcus faecalis JH2-2 C-terminal 6His-tagged DdlB expressed in Escherichia coli LMG194 preincubated for 30 mins followed by substrate addition and measured after 20 mins by Biomol Green reagent assay
T1 sequence (Q47758 whole entry): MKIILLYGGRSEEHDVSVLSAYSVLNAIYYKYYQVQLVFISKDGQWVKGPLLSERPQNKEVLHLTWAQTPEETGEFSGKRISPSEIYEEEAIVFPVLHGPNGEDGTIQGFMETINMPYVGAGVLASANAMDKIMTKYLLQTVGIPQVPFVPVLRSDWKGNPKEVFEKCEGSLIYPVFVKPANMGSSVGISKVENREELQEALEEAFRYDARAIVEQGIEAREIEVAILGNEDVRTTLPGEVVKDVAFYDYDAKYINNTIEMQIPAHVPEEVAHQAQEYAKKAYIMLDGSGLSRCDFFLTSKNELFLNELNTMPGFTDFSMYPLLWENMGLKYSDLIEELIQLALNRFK

Staphylococcus aureus [5] = assay: Antibacterial activity against hospital-acquired methicillin/ciprofloxacin/moxifloxacin resistant Staphylococcus aureus SA 481 after 18 to 24 hrs by microdilution assay; type: functional
Enterococcus faecalis [6] = assay: Antibacterial activity against Enterococcus faecalis ATCC 29212 after 18 to 24 hrs by microdilution assay; type: functional
Staphylococcus aureus [7] = assay: Antibacterial activity against methicillin and linezolid resistant Staphylococcus aureus NRS 119 clinical isolate after 18 to 24 hrs by microdilution assay; type: functional
Enterococcus faecalis [8] = assay: Antibacterial activity against vancomycin-resistant Enterococcus faecalis BM 4575 clinical isolate after 18 to 24 hrs by microdilution assay; type: functional
Staphylococcus aureus [9] = assay: Antibacterial activity against hospital-acquired methicillin and vacomycin resistant Staphylococcus aureus VRS-1 after 18 to 24 hrs by microdilution assay; type: functional
Enterococcus faecalis [10] = assay: Antibacterial activity against vancomycin-resistant Enterococcus faecalis JH2-2::C1 after 18 to 24 hrs by microdilution assay; type: functional
Staphylococcus aureus [11] = assay: Antibacterial activity against Staphylococcus aureus ATCC 25923 after 18 to 24 hrs by microdilution assay; type: functional

| Structure (SMILES) | MIC (Enterococcus faecalis [1]) | MIC (Staphylococcus aureus [2]) | MIC (Staphylococcus aureus [3]) | IC50 [4] | MIC (Staphylococcus aureus [5]) | MIC (Enterococcus faecalis [6]) | MIC (Staphylococcus aureus [7]) | MIC (Enterococcus faecalis [8]) | MIC (Staphylococcus aureus [9]) | MIC (Enterococcus faecalis [10]) | MIC (Staphylococcus aureus [11]) |
| --- | --- | --- | --- | --- | --- | --- | --- | --- | --- | --- | --- |
| O=C(NNC(=S)Nc1ccccc1Cl)c1ccccc1O | > 100 µM | 100 µM (≈ 32.2 µg/mL) | > 100 µM | 790 nM | 100 µM (≈ 32.2 µg/mL) | 400 µM (≈ 129 µg/mL) | 100 µM (≈ 32.2 µg/mL) | > 100 µM | 100 µM (≈ 32.2 µg/mL) | > 100 µM | > 100 µM |
| O=C(NNC(=S)Nc1ccc(F)cc1)c1ccccc1 |  |  |  |  |  | > 400 µM |  |  |  |  | > 100 µM |
| CCCCCNC(=S)NNC(=O)c1ccccc1O | > 100 µM | > 100 µM | > 100 µM | 930 nM | > 100 µM | > 400 µM | > 100 µM | > 100 µM | > 100 µM | > 100 µM | > 100 µM |
| O=C(NNC(=S)Nc1cccc(F)c1)c1ccccc1O | > 100 µM | > 100 µM | > 100 µM | 100 nM | > 100 µM | 200 µM (≈ 61.1 µg/mL) | > 100 µM | > 100 µM | > 100 µM | > 100 µM | > 100 µM |
| O=C(NNC(=S)Nc1cccc(F)c1)c1ccccc1 |  |  |  |  |  | > 400 µM |  |  |  |  | > 100 µM |
| O=C(NNC(=S)Nc1ccc([N+](=O)[O-])cc1)c1ccc(O)cc1 |  |  |  |  |  | > 400 µM |  |  |  |  | > 100 µM |
| COc1ccc(NC(=S)NNC(=O)c2ccccc2O)cc1 | > 100 µM | > 100 µM | > 100 µM | 710 nM | > 100 µM | > 400 µM | > 100 µM | > 100 µM | > 100 µM | > 100 µM | > 100 µM |
| O=C(NNC(=S)Nc1ccc(F)cc1)c1ccccc1O | > 100 µM | > 100 µM | > 100 µM | 840 nM | > 100 µM | 200 µM (≈ 61.1 µg/mL) | > 100 µM | > 100 µM | > 100 µM | > 100 µM | > 100 µM |
| CC(=O)c1ccc(NC(=S)NNC(=O)c2ccccc2O)cc1 | > 100 µM | > 100 µM | > 100 µM | 370 nM | > 100 µM | 50 µM (≈ 16.5 µg/mL) | > 100 µM | > 100 µM | > 100 µM | > 100 µM | 25 µM (≈ 8.23 µg/mL) |
| O=C(NNC(=S)NCCCN1CCOCC1)c1ccccc1O | > 100 µM | > 100 µM | > 100 µM |  | > 100 µM | > 400 µM | > 100 µM | > 100 µM | > 100 µM | > 100 µM | > 100 µM |
| COc1ccccc1NC(=S)NNC(=O)c1ccccc1O | > 100 µM | > 100 µM | > 100 µM | 550 nM | > 100 µM | > 400 µM | > 100 µM | > 100 µM | > 100 µM | > 100 µM | > 100 µM |
| O=C(NNC(=S)Nc1ccc(Cl)cc1Cl)c1ccccc1O | 25 µM (≈ 8.91 µg/mL) | 50 µM (≈ 17.8 µg/mL) | 50 µM (≈ 17.8 µg/mL) | 580 nM | 50 µM (≈ 17.8 µg/mL) | 50 µM (≈ 17.8 µg/mL) | 25 µM (≈ 8.91 µg/mL) | 25 µM (≈ 8.91 µg/mL) | 25 µM (≈ 8.91 µg/mL) | 50 µM (≈ 17.8 µg/mL) | 50 µM (≈ 17.8 µg/mL) |
| O=C(NNC(=S)Nc1ccc(Cl)c(Cl)c1)c1ccccc1 |  |  |  |  |  | > 100 µM |  |  |  |  | > 100 µM |
| O=C(NNC(=S)Nc1cccnc1)c1ccccc1O | > 100 µM | > 100 µM | > 100 µM |  | > 100 µM | 50 µM (≈ 14.4 µg/mL) | > 100 µM | > 100 µM | > 100 µM | > 100 µM | 50 µM (≈ 14.4 µg/mL) |
| O=C(NNC(=S)Nc1cccc(I)c1)c1ccccc1O | > 100 µM | > 100 µM | > 100 µM | 730 nM | > 100 µM | > 400 µM | > 100 µM | > 100 µM | > 100 µM | > 100 µM | > 100 µM |
| O=C(NNC(=S)Nc1ccc(Cl)cc1)c1ccccc1O | > 100 µM | > 100 µM | > 100 µM | 830 nM | > 100 µM | > 400 µM | > 100 µM | > 100 µM | > 100 µM | > 100 µM | > 100 µM |
| O=C(O)c1cn(C2CC2)c2cc(N3CCNCC3)c(F)cc2c1=O [CIPROFLOXACIN] |  |  |  |  | 770 µM (≈ 255 µg/mL) |  |  |  |  |  |  |
| CC(=O)NC[C@H]1CN(c2ccc(N3CCOCC3)c(F)c2)C(=O)O1 [LINEZOLID] |  |  | 3 µM (≈ 1.01 µg/mL) |  |  |  | 190 µM (≈ 64.1 µg/mL) |  |  |  |  |
| CN[C@H](CC(C)C)C(=O)N[C@H]1C(=O)N[C@@H](CC(N)=O)C(=O)N[C@H]2C(=O)N[C@H]3C(=O)N[C@H](C(=O)N[C@H](C(=O)O)c4cc(O)cc(O)c4-c4cc3ccc4O)[C@H](O)c3ccc(c(Cl)c3)Oc3cc2cc(c3O[C@@H]2O[C@H](CO)[C@@H](O)[C@H](O)[C@H]2O[C@H]2C[C@](C)(N)[C@H](O)[C@H](C)O2)Oc2ccc(cc2Cl)[C@H]1O [VANCOMYCIN] | 700 µM (≈ 1010 µg/mL) |  | 5 µM (≈ 7.25 µg/mL) |  |  |  | 0.7 µM (≈ 1.01 µg/mL) |  | > 175 µM | 350 µM (≈ 507 µg/mL) |  |
